From US20260130395A1, “Water Dispersible Botanical Compositions” (Aquila Black Limited, priority 2021, published 2026)

Assay: Stability of cannabinoid compounds and Vitamin E components in Beverage 2 (AB Red) by LCMSMS
Type: physicochemical

CCCCCc1cc2c(c(O)c1C(=O)O)[C@@H]1C=C(C)CC[C@H]1C(C)(C)O2 [D9 THCA, delta-9-tetrahydrocannabinolic acid]
Stability of Plant-Derived Cannabinoid Compounds in AB Red (stored at 8° C., 29 days): 1.35 µg/mL | Stability of Plant-Derived Cannabinoid Compounds in AB Red (stored at 8° C., 30 days): 1.31 µg/mL | Stability of Plant-Derived Cannabinoid Compounds in AB Red (stored at 8° C., 60 days): 1.32 µg/mL | Stability of Plant-Derived Cannabinoid Compounds in AB Red (stored at 8° C., 90 days): 1.34 µg/mL | Stability of Plant-Derived Cannabinoid Compounds in AB Red (stored at 8° C., 120 days): 1.30 µg/mL | Stability of Plant-Derived Cannabinoid Compounds in AB Red (stored at 8° C., 150 days): 1.34 µg/mL | Stability of Plant-Derived Cannabinoid Compounds in AB Red (stored at 8° C., 180 days): 1.30 µg/mL | Stability of Plant-Derived Cannabinoid Compounds in AB Red (stored at 8° C., 210 days): 1.33 µg/mL | Stability of Plant-Derived Cannabinoid Compounds in AB Red (stored at 8° C., 240 days): 1.32 µg/mL | Stability of Plant-Derived Cannabinoid Compounds in AB Red (stored at 8° C., 270 days): 1.33 µg/mL | Stability of Plant-Derived Cannabinoid Compounds in AB Red (stored at 8° C., 300 days): 1.30 µg/mL | Stability of Plant-Derived Cannabinoid Compounds in AB Red (stored at 8° C., 330 days): 1.34 µg/mL | Stability of Plant-Derived Cannabinoid Compounds in AB Red (stored at 8° C., 360 days): 1.31 µg/mL | Stability of Plant-Derived Cannabinoid Compounds in AB Red (stored at 8° C., 390 days): 1.29 µg/mL | Stability of Plant-Derived Cannabinoid Compounds in AB Red (stored at 8° C., 420 days): 1.29 µg/mL | Stability of Plant-Derived Cannabinoid Compounds in AB Red (stored at 8° C., 450 days): 1.31 µg/mL | Stability of Plant-Derived Cannabinoid Compounds in AB Red (stored at 8° C., 480 days): 1.28 µg/mL | Stability of Plant-Derived Cannabinoid Compounds in AB Red (stored at 8° C., 510 days): 1.25 µg/mL | Stability of Plant-Derived Cannabinoid Compounds in AB Red (stored at 8° C., 540 days): 1.26 µg/mL | Stability of Plant-Derived Cannabinoid Compounds in AB Red (stored at 8° C., 570 days): 1.24 µg/mL | Stability of Plant-Derived Cannabinoid Compounds in AB Red (stored at 21-25° C., 0 days): 1.35 µg/mL | Stability of Plant-Derived Cannabinoid Compounds in AB Red (stored at 21-25° C., 1 days): 1.34 µg/mL | Stability of Plant-Derived Cannabinoid Compounds in AB Red (stored at 21-25° C., 2 days): 1.30 µg/mL | Stability of Plant-Derived Cannabinoid Compounds in AB Red (stored at 21-25° C., 3 days): 1.32 µg/mL | Stability of Plant-Derived Cannabinoid Compounds in AB Red (stored at 21-25° C., 5 days): 1.36 µg/mL | Stability of Plant-Derived Cannabinoid Compounds in AB Red (stored at 21-25° C., 8 days): 1.36 µg/mL | Stability of Plant-Derived Cannabinoid Compounds in AB Red (stored at 21-25° C., 9 days): 1.35 µg/mL | Stability of Plant-Derived Cannabinoid Compounds in AB Red (stored at 21-25° C., 10 days): 1.33 µg/mL | Stability of Plant-Derived Cannabinoid Compounds in AB Red (stored at 21-25° C., 11 days): 1.33 µg/mL | Stability of Plant-Derived Cannabinoid Compounds in AB Red (stored at 21-25° C., 12 days): 1.33 µg/mL | Stability of Plant-Derived Cannabinoid Compounds in AB Red (stored at 21-25° C., 15 days): 1.30 µg/mL | Stability of Plant-Derived Cannabinoid Compounds in AB Red (stored at 21-25° C., 16 days): 1.36 µg/mL | Stability of Plant-Derived Cannabinoid Compounds in AB Red (stored at 21-25° C., 17 days): 1.35 µg/mL | Stability of Plant-Derived Cannabinoid Compounds in AB Red (stored at 21-25° C., 18 days): 1.36 µg/mL | Stability of Plant-Derived Cannabinoid Compounds in AB Red (stored at 21-25° C., 19 days): 1.31 µg/mL | Stability of Plant-Derived Cannabinoid Compounds in AB Red (stored at 21-25° C., 22 days): 1.34 µg/mL | Stability of Plant-Derived Cannabinoid Compounds in AB Red (stored at 21-25° C., 23 days): 1.36 µg/mL | Stability of Plant-Derived Cannabinoid Compounds in AB Red (stored at 21-25° C., 24 days): 1.30 µg/mL | Stability of Plant-Derived Cannabinoid Compounds in AB Red (stored at 21-25° C., 25 days): 1.35 µg/mL | Stability of Plant-Derived Cannabinoid Compounds in AB Red (stored at 21-25° C., 26 days): 1.32 µg/mL | Stability of Plant-Derived Cannabinoid Compounds in AB Red (stored at 21-25° C., 29 days): 1.33 µg/mL | Stability of Plant-Derived Cannabinoid Compounds in AB Red (stored at 21-25° C., 30 days): 1.34 µg/mL | Stability of Plant-Derived Cannabinoid Compounds in AB Red (stored at 21-25° C., 60 days): 1.28 µg/mL | Stability of Plant-Derived Cannabinoid Compounds in AB Red (stored at 21-25° C., 90 days): 1.34 µg/mL | Stability of Plant-Derived Cannabinoid Compounds in AB Red (stored at 21-25° C., 120 days): 1.34 µg/mL | Stability of Plant-Derived Cannabinoid Compounds in AB Red (stored at 21-25° C., 150 days): 1.28 µg/mL | Stability of Plant-Derived Cannabinoid Compounds in AB Red (stored at 21-25° C., 180 days): 1.30 µg/mL | Stability of Plant-Derived Cannabinoid Compounds in AB Red (stored at 21-25° C., 210 days): 1.33 µg/mL | Stability of Plant-Derived Cannabinoid Compounds in AB Red (stored at 21-25° C., 240 days): 1.31 µg/mL | Stability of Plant-Derived Cannabinoid Compounds in AB Red (stored at 21-25° C., 270 days): 1.27 µg/mL | Stability of Plant-Derived Cannabinoid Compounds in AB Red (stored at 21-25° C., 300 days): 1.27 µg/mL | Stability of Plant-Derived Cannabinoid Compounds in AB Red (stored at 21-25° C., 330 days): 1.28 µg/mL | Stability of Plant-Derived Cannabinoid Compounds in AB Red (stored at 21-25° C., 360 days): 1.29 µg/mL | Stability of Plant-Derived Cannabinoid Compounds in AB Red (stored at 21-25° C., 390 days): 1.26 µg/mL | Stability of Plant-Derived Cannabinoid Compounds in AB Red (stored at 21-25° C., 420 days): 1.26 µg/mL | Stability of Plant-Derived Cannabinoid Compounds in AB Red (stored at 21-25° C., 450 days): 1.31 µg/mL | Stability of Plant-Derived Cannabinoid Compounds in AB Red (stored at 21-25° C., 480 days): 1.29 µg/mL | Stability of Plant-Derived Cannabinoid Compounds in AB Red (stored at 21-25° C., 510 days): 1.27 µg/mL | Stability of Plant-Derived Cannabinoid Compounds in AB Red (stored at 21-25° C., 540 days): 1.29 µg/mL | Stability of Plant-Derived Cannabinoid Compounds in AB Red (stored at 21-25° C., 570 days): 1.24 µg/mL
